Results from publication PMC12518693, “Potent Fluorescent Probe for Target‐Engagement Studies of Allosteric Pyruvate Kinase Modulators” (Angewandte Chemie (International Ed. in English), 2025).
Where “and” joins values, the source holds several entries; their conditions need not be identical. Equal entries are not always repeated.

Assays:
[1] = target: T1, PKL (Homo sapiens, UniProt P30613); assay: Surface plasmon resonance, PKL
Method: The surface was washed with 10 mM NaOH, 1M NaCl followed by immobilization of protein before subsequent deactivation by 1 M ethanolamine. Immobilization levels were typically 12000-16000 RU. The reference spot was treated as described, omitting the injection of PKL. Compound concentration series was injected over the immobilized protein in increasing concentrations using multi cycle (MCK) or single cycle kinetics (SCK) in running buffer (10 mM HEPES, 150 mM NaCl, 0.05% Tween20, 0.3% DMSO, pH 7.4). A 1:1 Langmuir interaction model is fitted to the experimental traces, enabling determination of kon, koff and Kd.

[2] = target: T2, PKLNluc (Homo sapiens, UniProt P30613); assay: NanoBRET with recombinant PKLNluc; conditions: tracer IV 100 nM, 450/550 nm, ± mitapivat
Method: Due to the low quantum yield of SBD‐containing IV (Table S1), we optimized the plate reader settings for the NanoBRET assay to maximize the signal‐to‐background (S/B) ratio. The fluorescence excitation spectrum of tracer IV overlapped with the emission band of PKLNluc (Figure 5a), prompting the screening of wavelength pairs within 400–600 nm.
The donor/acceptor wavelength pairs were recorded at 450/470 nm, 550/510 nm, 450/530 nm, 450/550 nm, 450/610 nm, 450/630 nm and 400/470 nm respectively. For each sample well, BRET ratios were calculated using the following formula:
Where AcceptorS is the luminescence intensity (FI) of the sample well at 550 nm, DonorS is the FI of the sample well at 450 nm, and AcceptorNT and DonorNT are the FI of the no-tracer control at 550 nm and 450 nm respectively.

[3] = target: T2, PKLNluc; assay: Live-cell NanoBRET assay in HEK293 cells; type: cell-based; parameters: host or cells: HEK293, transient transfection
Method: To investigate the intracellular interaction of tracer IV with PKLNluc, we prepared a mammalian expression construct, fusing Nluc to the N‐terminus of PKL. […] As a negative control for NanoBRET experiments, a construct expressing Nluc alone (without PKL) was also prepared.
Additionally, cell viability assays were conducted on cells transfected with either PKLNluc or Nluc plasmids and incubated with tracer IV (Figure S4b,c).
HEK293 cells were passed one day before transfection. The concentration of cells was adjusted to 2x10^5 cells/ml in Opti-MEM™ without phenol red (Invitrogen) supplemented with 1% FBS (Hyclone). Cells (4x10^6) were reversed transfected with 1 µg of PKLNluc plasmid or 1 µg Nluc plasmid and 9 µg of carrier DNA (Promega) using 30 µL of Fugene HD transfection reagent (Promega). […] Work solutions (100x) of tracer IV were prepared from DMSO stocks and further diluted to 20x concentrations with Tracer buffer (Promega). Twenty-five hours after transfection, the cells were treated with 5 µL/well of each of 20x concentrations of the tracer (final concentrations in the assay were in the range 0.001-1 µM, depending on the experiment). Thereafter, 10 µL of 10x solutions of competitors (diluted in Opti-MEM™ medium from stocks of 100x prepared in DMSO) were added to some sets of cells, while the other set received only Opti-MEM™ containing 1% DMSO. The cells were incubated for 2 h at 37°C (5% CO2). […] For each sample well, BRET ratios were calculated using the following formula:
BRET ratio mBU= AcceptorSDonorS-AcceptorNTDonorNT
Where AcceptorS is the luminescence intensity of the sample well at 550 nm, DonorS is the luminescence of the sample well at 450 nm, and AcceptorNT and DonorNT are the luminescence of the no-tracer control at 550 nm and 450 nm respectively.

[4] = target: T1, PKL; assay: Fluorescence indication titration of tracer IV; type: binding; parameters: co-crystallisation of full-length PKL (including the B-domain); 8xHis (TEV-cleavable) (N, cleaved yes); made in house; host or cells: E. coli T7 Express (NEB), pExp-NHis plasmid
Method: The binding kinetics of IV were further validated with fluorescence titration experiments conducted with recombinant PKL. As previously reported, SBD‐tagged PKL ligands fluorescence upon binding to the allosteric pocket,^[ [43] ^] enabling K D determination by saturation binding. […] Association kinetics were then measured by adding tracer IV to PKL and monitoring fluorescence over time. Data were fit using an exponential association model (Equation S2),^[ [49] ^] and k on was derived from the reciprocal analysis of recorded k obs values. The k off was subsequently calculated (Equation S3).^[ [49] ^] The fluorescent binding experiments were consistent with SPR results, confirming a mid‐nanomolar K D of IV.
Titrations of tracer IV were performed in the presence and absence of 10 µM FBP. […] PKL was prepared as a 2x working solution at a constant concentration used throughout the titration. Equal volumes (10 µL) of 2x tracer and 2x PKL solutions were mixed (1:1) in 384-well microplates (Corning Black PS, 3820). For each experiment, three 12-point triplicate series were prepared containing either: (1) tracer IV and buffer (no PKL), (2) tracer IV and PKL (0.1 µM), (3) tracer IV and PKL (0.1 µM) and mitapivat (10 µM, competitor control). […] Titration data were analyzed in Origin(Pro) 2023^[8] and fitted to the Hill equation to determine EC₅₀ values.

T2 sequence (P30613 1-543 isoform P30613-2): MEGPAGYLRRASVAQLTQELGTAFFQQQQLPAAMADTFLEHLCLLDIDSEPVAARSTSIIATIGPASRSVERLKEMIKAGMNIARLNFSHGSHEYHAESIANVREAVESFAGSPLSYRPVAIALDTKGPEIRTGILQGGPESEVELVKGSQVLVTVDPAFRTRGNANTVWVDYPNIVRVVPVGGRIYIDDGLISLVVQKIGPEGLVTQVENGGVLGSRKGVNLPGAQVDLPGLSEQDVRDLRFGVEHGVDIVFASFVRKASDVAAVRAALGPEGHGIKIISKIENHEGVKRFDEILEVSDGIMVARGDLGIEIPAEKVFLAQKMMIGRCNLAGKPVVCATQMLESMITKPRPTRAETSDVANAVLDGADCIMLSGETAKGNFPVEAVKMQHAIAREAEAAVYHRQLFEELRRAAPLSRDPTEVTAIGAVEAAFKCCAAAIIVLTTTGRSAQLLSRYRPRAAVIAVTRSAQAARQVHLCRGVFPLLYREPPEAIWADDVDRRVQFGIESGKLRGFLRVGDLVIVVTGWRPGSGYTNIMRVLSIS
T1 sequence (P30613 1-543 isoform P30613-2): as above

SMILES: CN(C)c1ccc(S(=O)(=O)c2ccc3c(=O)n(Cc4cc[nH]n4)ncc3c2)c2nonc12 [Compound IV, 2-((1H-Pyrazol-3-yl)methyl)-6-((7-(dimethylamino)benzo[c][1,2,5]oxadiazol-4-yl)sulfonyl)phthalazin-1(2H)-one]
- Kd ([1]; K D SPR (PKL), 20 °C, mean ± SE n=3): 37 ± 1 nM
- Kd ([1]; KD, independent replicates, single cycle kinetics, 1:1 Langmuir fit, Figure S14): 38.8 nM and 36.9 nM
- PKL selectivity over PKM2 ([1]; SPR K D PKM2 vs PKL): 37 fold
- koff ([1]; read-out: k off SPR (PKL)): 0.00617 s⁻¹
- kon ([1]; read-out: k on SPR (PKL)): 168000 M⁻¹ s⁻¹
- BRET assay window [2]: 39 mBU
- tracer concentration above which nonspecific binding signals emerged ([3]; HEK293, PKLNluc): exceeding 400 nM
- EC50 ([3]; HEK293 transfected with PKLNluc, 2 h 37 °C, displacement control (20 µM mitapivat) subtracted, read-out: EC50 (cell), tracer titration, specific BRET signal): 18.4 nM
- effect of FBP on binding affinity ([4]; PKLwt, with and without 10 µM FBP): no significant change in binding affinity
- koff ([4]; calculated from K D and k on (Equation S3), read-out: k off fluorescence titration (PKL) (converted)): 0.00865 s⁻¹
- kon ([4]; from k obs values): 206000 M⁻¹ s⁻¹
- Kd ([4]; recombinant PKL, Hill fit, read-out: K D fluorescence titration (PKL)): 42 ± 7 nM
